# Assay results reported in ChEMBL document CHEMBL3351341, “Discovery of a potent and selective EGFR inhibitor (AZD9291) of both sensitizing and T790M resistance mutations that spares the wild type form of the receptor” (J Med Chem, 2014).
# Experiments:
# [1] = tested on: Plasma; assay: Drug metabolism in mouse plasma treated with N-[2-(2-Dimethylaminoethylmethylamino)-4-methoxy-5-[[4-(1-methylindol-3-yl)pyrimidin-2-yl]amino]phenyl]prop-2-enamide; type: ADME, cell-free
# [2] = Lipophilicity, log D of the compound at pH 7.4; type: physicochemical; conditions: buffer
# [3] = Thermodynamic solubility of the compound at pH 7.4; type: physicochemical; conditions: buffer, read-out: Therm_solubility
# [4] = molecular target: Voltage-gated inwardly rectifying potassium channel KCNH2 (Homo sapiens, UniProt Q12809); assay: Inhibition of human ERG
# [5] = molecular target: Insulin-like growth factor 1 receptor (Homo sapiens, UniProt P08069); assay: Inhibition of IGF1R (unknown origin)
# [6] = tested on: NCI-H1975; assay: Cytotoxicity against human NCI-H1975 cells harboring EGFR L858R/[…] double mutant assessed as growth inhibition after 72 hrs by SYTOX green nucleic acid staining-based fluorescence assay; type: functional
# [7] = Cytotoxicity against human PC9 cells harboring EGFR exon 19 deletion activating mutant assessed as growth inhibition after 72 hrs by SYTOX green nucleic acid staining-based fluorescence assay; type: functional, PC-9
# [8] = Cytotoxicity against human Calu3 cells assessed as growth inhibition after 72 hrs by SYTOX green nucleic acid staining-based fluorescence assay; type: functional, Calu-3
# [9] = (§1) Unbound fraction in human plasma; type: ADME, cell-free
# [10] = Unbound fraction in nude mouse plasma; type: ADME, cell-free
# [11] = Intrinsic clearance in rat hepatocytes measured per 10^6 cells; type: ADME, cell-based, Hepatocyte; conditions: read-out: CLH
# [12] = Intrinsic clearance in human hepatocytes measured per 10^6 cells; type: ADME, cell-based, Hepatocyte; conditions: read-out: CLH
# [13] = Fraction unbound in Han Wistar rat plasma; type: ADME, cell-free
# [14] = tested on: Plasma; assay: Drug metabolism in rat plasma treated with N-[2-(2-Dimethylaminoethylmethylamino)-4-methoxy-5-[[4-(1-methylindol-3-yl)pyrimidin-2-yl]amino]phenyl]prop-2-enamide; type: ADME, cell-free
# [15] = tested on: NCI-H1975; assay: Antitumor activity against human NCI-H1975 cells harboring EGFR L858R/[…] double mutant xenografted in SCID mouse assessed as tumor growth inhibition at […], po qd for 7 days relative to control; type: functional
# [16] = tested on: A-431; assay: Antitumor activity against human A431 cells xenografted in SCID mouse assessed as tumor growth inhibition at […], po qd for 7 days relative to control; type: functional
# [17] = tested on: Plasma; assay: as §1; type: ADME, cell-free
# [18] = Half life of the compound by GSH reduction assay; type: physicochemical; conditions: glutathione (GSH)
# [19] = Cmax in mouse at 10 mg/kg, po; type: ADME, organism-based; parameters: dose 10 mg/kg, route oral; conditions: in vivo
# [20] = tested on: NCI-H1975; assay: Antitumor activity against human NCI-H1975 cells harboring EGFR L858R/[…] double mutant xenografted in SCID mouse assessed as tumor growth inhibition at 10 mg/kg/day, po qd for 7 days relative to control; type: functional
# [21] = Antitumor activity against human PC9 cells harboring EGFR exon 19 deletion activating mutant xenografted in SCID mouse assessed as tumor growth inhibition at 10 mg/kg/day, po qd for 7 days relative to control; type: functional, PC-9
# [22] = tested on: A-431; assay: Antitumor activity against human A431 cells xenografted in SCID mouse assessed as tumor growth inhibition at 10 mg/kg/day, po qd for 7 days relative to control; type: functional
# [23] = tested on: Rattus norvegicus; assay: Clearance in iv dosed Han Wistar rat; type: ADME, organism-based; conditions: in vivo
# [24] = Oral bioavailability in Han Wistar rat at 5 mg/kg; type: ADME, organism-based; conditions: in vivo
# [25] = tested on: NCI-H1975; assay: Antitumor activity against human NCI-H1975 cells harboring EGFR L858R/[…] double mutant xenografted in SCID mouse assessed as tumor growth inhibition at 5 mg/kg/day, po qd for 7 days relative to control; type: functional
# [26] = tested on: A-431; assay: Antitumor activity against human A431 cells xenografted in SCID mouse assessed as tumor growth inhibition at 5 mg/kg/day, po qd for 7 days relative to control; type: functional
# [27] = molecular target: Insulin receptor (Homo sapiens, UniProt P06213); assay: Inhibition of INSR (unknown origin)
# [28] = tested on: Rattus norvegicus; assay: Toxicity in rat at 200 mg/kg, po as single dose measured over 24 hrs; type: organism-based; parameters: dose 200 mg/kg, route oral; conditions: in vivo
# [29] = tested on: Rattus norvegicus; assay: Toxicity in rat assessed as hyperglycemia at 200 mg/kg, po as single dose measured over 24 hrs; type: organism-based; parameters: dose 200 mg/kg, route oral; conditions: in vivo
# [30] = tested on: Cavia porcellus; assay: Cardiotoxicity in anesthetized guinea pig assessed as QT prolongation at fCmax concentration; type: toxicity, organism-based; conditions: in vivo
# [31] = tested on: Plasma; assay: Drug metabolism in rat plasma assessed as loss of indole N-methyl group; type: ADME, cell-free
# [32] = tested on: Plasma; assay: Drug metabolism in mouse plasma assessed as loss of indole N-methyl group; type: ADME, cell-free
# [33] = tested on: Plasma; assay: Drug metabolism in rat plasma assessed as dealkylation of compound; type: ADME, cell-free
# [34] = tested on: Plasma; assay: Drug metabolism in mouse plasma assessed as dealkylation of compound; type: ADME, cell-free
# [35] = tested on: NCI-H1975; assay: Antitumor activity against human NCI-H1975 cells harboring EGFR L858R/[…] double mutant xenografted in SCID mouse assessed as tumor growth inhibition at 20 mg/kg/day, po qd for 7 days relative to control; type: functional; conditions: NCI-H1975, 168 h, read-out: TGI
# [36] = tested on: A-431; assay: Antitumor activity against human A431 cells xenografted in SCID mouse assessed as tumor growth inhibition at 20 mg/kg/day, po qd for 7 days relative to control; type: functional; conditions: A-431, 168 h, read-out: TGI
# [37] = Mus musculus, NCI-H1975, 168 h, read-out: TGI
# [38] = Mus musculus, A-431, 168 h, read-out: TGI
# Insulin-like growth factor 1 receptor, sequence (P08069 31-736 limits assumed): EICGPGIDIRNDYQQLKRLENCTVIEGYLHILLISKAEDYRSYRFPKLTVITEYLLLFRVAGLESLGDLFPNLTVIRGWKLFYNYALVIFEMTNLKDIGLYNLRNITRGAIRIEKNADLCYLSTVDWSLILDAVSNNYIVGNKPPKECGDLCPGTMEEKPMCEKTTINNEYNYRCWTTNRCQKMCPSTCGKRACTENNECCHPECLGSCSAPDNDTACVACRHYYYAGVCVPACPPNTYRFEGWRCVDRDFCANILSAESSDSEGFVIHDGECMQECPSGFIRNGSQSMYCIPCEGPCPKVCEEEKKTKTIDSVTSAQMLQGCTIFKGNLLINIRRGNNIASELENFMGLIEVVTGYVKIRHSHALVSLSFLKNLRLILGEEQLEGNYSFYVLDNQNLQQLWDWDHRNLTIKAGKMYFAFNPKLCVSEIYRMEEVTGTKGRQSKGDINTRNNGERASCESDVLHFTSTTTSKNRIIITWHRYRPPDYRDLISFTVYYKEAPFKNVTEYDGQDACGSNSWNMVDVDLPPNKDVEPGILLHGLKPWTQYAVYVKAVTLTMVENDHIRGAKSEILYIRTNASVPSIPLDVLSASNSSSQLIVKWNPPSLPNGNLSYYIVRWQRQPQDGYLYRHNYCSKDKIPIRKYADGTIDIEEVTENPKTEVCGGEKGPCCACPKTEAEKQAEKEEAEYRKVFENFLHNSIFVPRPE
# Insulin-like growth factor 1 receptor, sequence (P08069 741-1367 limits assumed): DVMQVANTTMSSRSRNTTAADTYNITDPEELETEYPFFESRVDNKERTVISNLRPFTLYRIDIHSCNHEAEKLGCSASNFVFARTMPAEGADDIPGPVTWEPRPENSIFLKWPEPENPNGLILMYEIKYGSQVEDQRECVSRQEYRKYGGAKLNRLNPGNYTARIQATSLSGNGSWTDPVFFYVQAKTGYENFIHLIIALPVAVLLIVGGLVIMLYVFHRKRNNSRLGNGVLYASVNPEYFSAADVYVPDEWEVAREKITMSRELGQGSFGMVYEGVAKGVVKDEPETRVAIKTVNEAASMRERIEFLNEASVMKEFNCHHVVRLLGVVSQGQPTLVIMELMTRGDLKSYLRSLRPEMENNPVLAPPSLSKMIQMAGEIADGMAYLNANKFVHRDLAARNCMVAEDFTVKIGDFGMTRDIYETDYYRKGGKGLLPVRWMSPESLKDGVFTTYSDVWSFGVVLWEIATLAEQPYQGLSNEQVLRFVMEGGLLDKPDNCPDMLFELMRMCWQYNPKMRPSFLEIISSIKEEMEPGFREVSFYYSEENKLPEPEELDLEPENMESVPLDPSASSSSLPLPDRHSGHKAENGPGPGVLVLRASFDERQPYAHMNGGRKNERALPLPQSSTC
# Voltage-gated inwardly rectifying potassium channel KCNH2, sequence (Q12809 whole entry): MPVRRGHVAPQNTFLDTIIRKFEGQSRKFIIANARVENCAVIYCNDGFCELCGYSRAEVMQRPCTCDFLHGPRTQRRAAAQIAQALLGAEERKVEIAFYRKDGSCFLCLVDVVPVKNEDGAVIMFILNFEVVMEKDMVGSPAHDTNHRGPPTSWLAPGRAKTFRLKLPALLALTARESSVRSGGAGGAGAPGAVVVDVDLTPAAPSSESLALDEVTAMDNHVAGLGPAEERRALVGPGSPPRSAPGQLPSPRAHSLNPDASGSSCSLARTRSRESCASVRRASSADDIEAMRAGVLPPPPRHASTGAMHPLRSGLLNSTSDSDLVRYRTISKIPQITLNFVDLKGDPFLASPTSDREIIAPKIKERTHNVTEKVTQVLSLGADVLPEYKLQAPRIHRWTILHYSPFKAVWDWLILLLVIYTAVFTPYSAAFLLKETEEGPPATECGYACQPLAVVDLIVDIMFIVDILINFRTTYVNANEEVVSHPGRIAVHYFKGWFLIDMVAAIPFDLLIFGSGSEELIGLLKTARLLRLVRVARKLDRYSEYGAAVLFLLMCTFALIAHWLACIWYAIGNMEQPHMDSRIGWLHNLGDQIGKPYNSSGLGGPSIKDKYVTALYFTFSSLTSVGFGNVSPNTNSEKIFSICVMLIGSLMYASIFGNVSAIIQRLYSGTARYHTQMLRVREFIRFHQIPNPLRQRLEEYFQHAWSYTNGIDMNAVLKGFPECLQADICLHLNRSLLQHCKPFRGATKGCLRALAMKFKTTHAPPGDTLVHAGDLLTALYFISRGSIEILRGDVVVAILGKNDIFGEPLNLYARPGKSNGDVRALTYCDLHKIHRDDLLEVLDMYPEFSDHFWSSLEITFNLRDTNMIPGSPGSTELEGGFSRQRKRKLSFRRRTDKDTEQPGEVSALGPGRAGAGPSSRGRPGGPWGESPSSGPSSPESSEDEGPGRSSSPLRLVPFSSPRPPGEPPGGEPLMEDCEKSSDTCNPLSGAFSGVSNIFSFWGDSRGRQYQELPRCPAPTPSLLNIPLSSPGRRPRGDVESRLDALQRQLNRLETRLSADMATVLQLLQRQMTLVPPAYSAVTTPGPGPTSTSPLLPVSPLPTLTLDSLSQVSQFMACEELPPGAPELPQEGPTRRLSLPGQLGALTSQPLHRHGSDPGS
# Insulin receptor, sequence (P06213 28-758 limits assumed): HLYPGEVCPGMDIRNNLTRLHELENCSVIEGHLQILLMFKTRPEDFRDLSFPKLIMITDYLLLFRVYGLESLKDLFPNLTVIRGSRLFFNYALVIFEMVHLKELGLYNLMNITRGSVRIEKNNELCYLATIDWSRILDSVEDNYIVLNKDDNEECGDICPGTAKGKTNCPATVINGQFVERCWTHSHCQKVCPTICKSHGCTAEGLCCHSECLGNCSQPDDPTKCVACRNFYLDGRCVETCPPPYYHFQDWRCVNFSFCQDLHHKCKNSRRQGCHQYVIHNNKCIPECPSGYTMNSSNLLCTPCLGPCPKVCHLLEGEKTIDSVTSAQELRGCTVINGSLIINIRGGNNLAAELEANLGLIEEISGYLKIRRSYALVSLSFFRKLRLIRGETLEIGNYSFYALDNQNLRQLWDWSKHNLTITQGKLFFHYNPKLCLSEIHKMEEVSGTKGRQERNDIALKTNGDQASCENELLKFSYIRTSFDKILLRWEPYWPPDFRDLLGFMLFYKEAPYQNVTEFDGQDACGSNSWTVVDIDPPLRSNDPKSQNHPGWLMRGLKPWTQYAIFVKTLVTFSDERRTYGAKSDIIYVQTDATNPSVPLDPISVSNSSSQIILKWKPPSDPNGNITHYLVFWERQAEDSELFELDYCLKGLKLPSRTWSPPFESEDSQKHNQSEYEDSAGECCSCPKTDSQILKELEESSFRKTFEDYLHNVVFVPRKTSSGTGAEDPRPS
# Insulin receptor, sequence (P06213 763-1382 limits assumed): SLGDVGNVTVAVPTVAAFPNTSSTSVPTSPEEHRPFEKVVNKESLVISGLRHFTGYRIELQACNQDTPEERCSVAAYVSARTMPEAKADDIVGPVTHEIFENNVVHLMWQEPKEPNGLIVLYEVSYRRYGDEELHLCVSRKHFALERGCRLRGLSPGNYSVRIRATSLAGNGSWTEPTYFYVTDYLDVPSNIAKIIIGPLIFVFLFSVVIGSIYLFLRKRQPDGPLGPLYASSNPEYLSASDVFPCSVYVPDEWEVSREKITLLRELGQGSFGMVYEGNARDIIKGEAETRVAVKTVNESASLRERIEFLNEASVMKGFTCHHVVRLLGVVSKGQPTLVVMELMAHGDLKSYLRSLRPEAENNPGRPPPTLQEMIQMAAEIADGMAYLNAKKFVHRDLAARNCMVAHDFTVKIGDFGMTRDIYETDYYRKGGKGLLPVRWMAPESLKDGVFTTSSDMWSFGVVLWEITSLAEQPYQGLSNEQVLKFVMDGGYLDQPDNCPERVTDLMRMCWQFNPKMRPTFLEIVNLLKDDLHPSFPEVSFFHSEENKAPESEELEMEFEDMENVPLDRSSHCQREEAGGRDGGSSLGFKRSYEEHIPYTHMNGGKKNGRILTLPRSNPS
structure (smiles),measurement,setting,value
C=CC(=O)Nc1cc(Nc2nccc(-c3cn(C)c4ccccc34)n2)c(OC)cc1N(C)CCNC,Drug metabolism,[1],metabolite_detected
same,logD,[2],2.3
same,solubility thermodynamic,[3],14 µM
same,IC50,[4],> 33000 nM
same,IC50,[5],1600 nM
same,GI50,"[6]; Homo sapiens, NCI-H1975, 72 h",19 nM
same,GI50,"[7]; Homo sapiens, PC-9, 72 h",15 nM
same,GI50,"[8]; Homo sapiens, Calu-3, 72 h",537 nM
same,fraction unbound,[9],0.039
same,fraction unbound,[10],0.0105
same,hepatocyte CLint,[11],50 µL/min/1e6 cells
same,hepatocyte CLint,[12],< 3 µL/min/1e6 cells
same,fraction unbound,[13],0.023
same,Drug metabolism,[14],metabolite_detected
C=CC(=O)Nc1cc(Nc2nccc(-c3cn(C)c4ccccc34)n2)c(OC)cc1N(C)CCN(C)C [OSIMERTINIB],TGI,[15],120%
same,TGI,[16],65%
same,logD,[2],3.4
same,solubility thermodynamic,[3],7 µM
same,IC50,[5],2900 nM
same,GI50,[7],23 nM
same,GI50,[8],264 nM
same,Fu,[17],2.9%
same,fraction unbound,[10],0.034
same,hepatocyte CLint,[11],27 µL/min/1e6 cells
same,hepatocyte CLint,[12],3.4 µL/min/1e6 cells
same,half-life,[18],2.02 h
same,Cmax,[19],380 nM
same,TGI,[20],148%
same,TGI,[21],267%
same,TGI,[22],102%
same,clearance,[23],45 mL/min/kg
same,bioavailability,[24],45%
same,fraction unbound,[13],0.032
same,TGI,[25],134%
same,TGI,[26],79%
same,IC50,[27],912 nM
same,Activity,[28],Non-toxic
same,Activity,[29],Non-toxic
same,Activity,[30],Non-toxic
same,Drug metabolism,[31],metabolite_detected
same,Drug metabolism,[32],metabolite_detected
same,Drug metabolism,[33],metabolite_detected
same,Drug metabolism,[34],metabolite_detected
CN(C)C/C=C/C(=O)Nc1cc2c(Nc3ccc(F)c(Cl)c3)ncnc2cc1O[C@H]1CCOC1 [AFATINIB],inhibition in vivo at […],"[15]; NCI-H1975, 168 h, read-out: TGI",16%
same,inhibition in vivo at […],"[16]; A-431, 168 h, read-out: TGI",84%
same,inhibition in vivo at 20 mg/kg/day,[35],74%
same,inhibition in vivo at 20 mg/kg/day,[36],158%
same,inhibition in vivo at 10 mg/kg/day,[20]; [37],25%
same,inhibition in vivo at 10 mg/kg/day,[22]; [38],131%
same,inhibition in vivo at 5 mg/kg/day,[25]; [37],23%
same,inhibition in vivo at 5 mg/kg/day,[26]; [38],84%
